# Measurements reported in patent US20220213126A1, “SMALL MOLECULE AUTOPHAGY INDUCERS FOR THE TREATMENT OF CANCER AND NEURODEGENERATIVE DISEASES” (John Wayne Cancer Institute, priority 2019, published 2022).
# pIC50: −log10 of the molar value.
# Tests used:
# LogD octanol-water = format: physicochemical; conditions: pH 7.4, read-out: LogD (octanol-water partition coefficient), pH 7.4
# Protocol: Moreover, PK studies of RSV in humans conclude that even high concentration of RSV might be insufficient to achieve in vivo concentrations required for the systemic prevention of cancer. Therefore, in vitro ADME assays were carried out to assess VMY-BC-1 and to identify properties for further optimization.
# wild-type C. elegans = experiment: C. elegans lifespan; format: in vivo
# Protocol: Synchronized populations of wild-type L1 C. elegans hatched overnight were transferred to agar plates followed by VMY-BC-1 was added freshly from a 5 mM stock to the NGM media. Water was used as control. The L4 population of worms was randomly split to control or treatment groups in a density of about 20-30 worms per 6 cm plate dish.
# The first day of adulthood was considered day one. In all the experiments with late-onset administration of VMY-BC-1, synchronized L4 animals were moved to the media supplemented with 5′-fluorodeoxyuridine (FUDR, Cayman chemicals) at a final concentration of 1 μM for 2 days to prevent reproduction, then were moved to FUDR-free NGM plates until the final treatments at day 10. The animals that crawled off the plate, ruptured, or died from internal hatching were censored. Worms were transferred to fresh plates every day after reaching adulthood, and every 2 days after reaching 10 days of age. Prodding test was used to count the number of dead worms. Survival curve was plotted using Prism 7 and the significance of the curves calculated by Log-rank (Mantel-Cox) test.
# Synchronized populations of polyQ-expressing C. elegans were grown for 72 hours on media containing 1 μM VMY-BC-1. PolyQ aggegrative vacuoles were detected using confocal microscopy. PolyQ aggregations were decreased compared to vehicle (DMSO) (FIG. 21A). […]
# [1] = Brain pharmacokinetics in mice; format: in vivo
# Protocol: Pharmacokinetics of VMY-BC-1 in the brain were assessed in mice administered 25 mg/kg VMY-BC-1 p.o. (Table 6).
# Free drug fraction in brain and plasma compartment was determined in vitro (Table 7). Brain to plasma (B/P) ratio was also determined in vivo (Table 8).
# NHA = experiment: Normal cell viability, Alamar blue, 72 hours; format: cell-based; conditions: normal cell line
# Protocol: (§1) The effect of VMY-BC-1 was tested on a panel of GBM cell lines. […] In this study 100 μM was the highest drug concentration used, with 3-fold dilution for a 10 dose response curve.
# [2] = Normal cell viability, Alamar blue, 72 hours; format: cell-based; conditions: MRCS, normal cell line
# Protocol: as §1
# [3] = system: proteins of MDA-MB-1 cells; experiment: Thermal proteome profiling (TPP) for binding proteins
# Protocol: To further elucidate targets that activate the above signaling mechanisms, thermal proteome profiling (TPP) was used to identify binding proteins (Franken et al., Nat. Protoc. 10:1567-1593, 2015; Miettinen et al., EMBO J. 37:e98359, 2018) (FIG. 5A). TPP enables an unbiased assessment of the proteins […] bound to VMY-BC-1 on a proteome-wide scale. Cell lysates were made from MDA-MB-1 cells treated with vehicle or 10 μM VMY-BC-1 for 24 hours. Lysates were heated at different temperatures for 3 minutes in a thermal cycler. Equal amounts of protein were digested, labeled with TMT 10-plex and analyzed by mass spectrometry. The fold-changes in protein abundances were computed relative to the lowest temperature in the temperature set. After a normalization, melting curves were fitted to the fold-changes of each individual protein. The thermal stability of proteins affected by VMY-BC-1 treatment was calculated using the differences between melting points from control for each protein. From the 5,634 proteins screened, 10 target proteins were identified that bound VMY-BC-1: LIMK1, ATM, CDLK5, ULK1, WNK1, PP2C, AK1, IKBKAP, Q53E18, and HDAC1 (FIG. 5B).
# [4] = In vivo ADME/plasma pharmacokinetics in male CD1 mice
# Protocol: FIG. 8 is a graph showing plasma pharmacokinetics of VMY-BC-1 in vivo. Concentrations are expressed as the mean±SEM.
# In vivo ADME characteristics were determined in male CD1 mice following VMY-BC-1 administration at 1 mg/kg intravenously and 25 mg/kg and 100 mg/kg orally (FIG. 8). […] Sustained oral absorption following the 100 mg/kg oral administration indicated solubility was not limited oral absorption.
# ULK1 = experiment: Western blot of autophagy proteins in U87 cells; format: cell-based; conditions: 10 μM, 12-48 hours
# Protocol: FIG. 14 is a Western blot of autophagy proteins in U87 GBM cells treated with vehicle (control), VMY-BC-1, or Rapamycin. Western blot is shown for p-ULK1, LC3 A/B, and cleaved PARP.
# The effect of VMY-BC-1 on autophagy-related proteins in U87 cells was tested. Protein extracts were made from cells treated with vehicle control, VMY-BC-1 (10 μM), or rapamycin (200 nM) for 12-48 hours.
# [5] = 25 mg/kg single dose P.O., 0.00 h
# [6] = 25 mg/kg single dose P.O., 12.00 h
# [7] = 25 mg/kg single dose P.O., 24.00 h
compound,measurement,setting,value
COc1ccc(/C=C/c2cc(OC)cc(B(O)O)c2)cc1 [VMY-BC-1],logD,LogD octanol-water,3.37
same,Maximal median lifespan extension,wild-type C. elegans; 1 μM,~25%
same,Lifespan,wild-type C. elegans; 0.1 to 10 μM,dose-dependent lifespan extension
same,Mean Brain Concentration,[1]; [5],0 ng/g
same,Mean Plasma Concentration,[1]; [5],0 ng/mL
same,Mean Brain Concentration,"[1]; 25 mg/kg single dose P.O., 0.50 h, in ng/g",40017.53
same,Mean Plasma Concentration,"[1]; 25 mg/kg single dose P.O., 0.50 h, in ng/mL",5273.66
same,Mean Brain Concentration,"[1]; 25 mg/kg single dose P.O., 1.00 h, in ng/g",28802.80
same,Mean Plasma Concentration,"[1]; 25 mg/kg single dose P.O., 1.00 h, in ng/mL",5486.04
same,Mean Brain Concentration,"[1]; 25 mg/kg single dose P.O., 3.00 h, in ng/g",6158.13
same,Mean Plasma Concentration,"[1]; 25 mg/kg single dose P.O., 3.00 h, in ng/mL",1945.44
same,Mean Brain Concentration,"[1]; 25 mg/kg single dose P.O., 6.00 h, in ng/g",1948.79
same,Mean Plasma Concentration,"[1]; 25 mg/kg single dose P.O., 6.00 h, in ng/mL",889.87
same,Mean Brain Concentration,[1]; [6],0 ng/g
same,Mean Plasma Concentration,[1]; [6],0 ng/mL
same,Mean Brain Concentration,[1]; [7],0 ng/g
same,Mean Plasma Concentration,[1]; [7],0 ng/mL
same,AUCextrap,"[1]; Brain, oral 25 mg/kg",4.74%
same,AUCinf,"[1]; Brain, oral 25 mg/kg",78032.82 ng·h/g
same,AUClast,"[1]; Brain, oral 25 mg/kg",74330.76 ng·h/g
same,AUCextrap,"[1]; Plasma, oral 25 mg/kg",13.75%
same,Kp at 0 h,"[1]; mouse, brain and plasma, oral, 25 mg/kg single dose P.O., 0.00 h, read-out: Brain to Plasma Ratio",0
same,Kp at 12 h,"[1]; mouse, brain and plasma, oral, 25 mg/kg single dose P.O., 12.00 h, read-out: Brain to Plasma Ratio",0
same,Kp at 24 h,"[1]; mouse, brain and plasma, oral, 25 mg/kg single dose P.O., 24.00 h, read-out: Brain to Plasma Ratio",0
same,Kp,"[1]; mouse, brain and plasma, po, 25 mg/kg p.o., read-out: Cmax relative to plasma",7
same,Kp at 0.5 h,"[1]; mouse, brain and plasma, po, 25 mg/kg single dose P.O., 0.50 h, read-out: Brain to Plasma Ratio",7.59
same,Kp at 1 h,"[1]; mouse, brain and plasma, po, 25 mg/kg single dose P.O., 1.00 h, read-out: Brain to Plasma Ratio",5.25
same,Kp at 3 h,"[1]; mouse, brain and plasma, po, 25 mg/kg single dose P.O., 3.00 h, read-out: Brain to Plasma Ratio",3.17
same,Kp at 6 h,"[1]; mouse, brain and plasma, po, 25 mg/kg single dose P.O., 6.00 h, read-out: Brain to Plasma Ratio",2.19
same,Cmax,"[1]; mouse, Brain, oral 25 mg/kg",40000 ng/g
same,MRT last,"[1]; mouse, Brain, oral 25 mg/kg",1.48 h
same,Tmax,"[1]; mouse, Brain, oral 25 mg/kg",0.5 h
same,half-life,"[1]; mouse, Brain, oral 25 mg/kg",1.32 h
same,AUC(0-inf),"[1]; mouse, Plasma, oral 25 mg/kg",18200 ng·h/mL
same,AUC(0-t),"[1]; mouse, Plasma, oral 25 mg/kg",15700 ng·h/mL
same,Cmax,"[1]; mouse, Plasma, oral 25 mg/kg",5490 ng/mL
same,MRT last,"[1]; mouse, Plasma, oral 25 mg/kg",1.96 h
same,Tmax,"[1]; mouse, Plasma, oral 25 mg/kg",1 h
same,half-life,"[1]; mouse, Plasma, oral 25 mg/kg",1.95 h
same,pIC50,NHA,4.58
same,pIC50,[2],4.45
same,Target proteins identified that bound VMY-BC-1,"[3]; 10 μM, 24 hours, 5,634 proteins screened",10
same,Fraction of bound protein,"[3]; of 5,634 proteins screened",0.0017 fraction
same,Plasma clearance,[4]; 1 mg/kg intravenously,50 % of hepatic blood flow
same,half-life,"[4]; male, CD1, mouse, plasma, iv, 1 mg/kg intravenously, read-out: Elimination half-life (converted)",~1 h
same,Vd,"[4]; male, CD1, mouse, plasma, iv, 1 mg/kg intravenously, read-out: Volume of distribution",2.4 L/kg
same,bioavailability,"[4]; male, CD1, mouse, plasma, 25 mg/kg oral, read-out: Oral suspension bioavailability F (%)",> 100%
same,Cmax,"[4]; male, CD1, mouse, plasma, oral, dose not given, read-out: Mean maximum concentration (Cmax)",3060 ng/mL
same,Tmax,"[4]; male, CD1, mouse, plasma, oral, read-out: Time to maximum concentration (Tmax)",1 to 2 h
same,Increase in Cmax,[4]; oral dose 25 to 100 mg/kg,approximately 5 fold
same,Increase in plasma exposures,[4]; oral dose 25 to 100 mg/kg,~7 fold
same,Autophagy proteins and phosphorylation of ULK1 and LC3 A/B (Western blot),ULK1,increasing amounts of autophagy proteins over time as well as increased phosphorylation of ULK1 and LC3 A/B
